# The NIST ThermoML archive (doi:10.1021/acs.jced.5b00317)
# Numbers after ± are expanded uncertainties.
# Settings: 101 kPa, Liquid, Sing-around technique in a fixed-path interferometer
smiles,measurement,setting,value
O [water],speed of sound,313.15 K,1529.2 ± 0.77 m/s
same,speed of sound,318.15 K,1536.8 ± 0.78 m/s
